Results reported in patent US20090082322A1, “Gender Differences in Experimental Aortic Aneurysm Formation” (THE REGENTS OF THE UNIVERSITY OF MICHIGAN, priority 2004, published 2009).

Legend:
MMP-2 [1] = experiment: MMP-2 activity in conditioned media of IL-1β stimulated male RASMCs; assay type: cell-based, rat; conditions: 1×10^−10 to 1×10^−6 molar, with IL-1β
Description: Experiment I: Adult male and female rat aortic smooth muscle cells (RASMCs) were grown in Dulbecco's modified Eagle medium (DMEM) with 10% fetal bovine serum (FBS). RASMCs at passages four through eight were stimulated in serum-free media for 48 hours with IL-1β at doses encountered in human aortic aneurysms (2 ng/mL). The culture media was collected, and mRNA was extracted from the RASMCs. After reverse transcription to cDNA, gene expression of MMP-2 and TIMP-2 (a major MMP-2 inhibitor) was measured by real-time polymerase chain reaction. MMP-2 protein levels in conditioned media were measured by Western blotting, with MMP-2 and TIMP-2 activity quantified by standard and reverse gelatin zymography. Experiment II: Male RASMCs were incubated in DMEM containing 17-β-estradiol and IL-1β, MMP-2 activity in the conditioned media was then determined.

MMP-9 [2] = experiment: MMP-9 activity (gelatin zymography) in media of IL-1β stimulated male RASMCs; assay type: cell-based, Sprague-Dawley rats; conditions: 10^−10 to 10^−6 mol/L, 48 hours with concurrent IL-1β stimulation
Description: Experimental interventions were carried out with confluent RASMCs at passages 3 through 8 in serum-free DMEM supplemented with antibiotics. Confluent monolayers of RASMCs were incubated in T-75 plates with IL-1β (2 ng/mL, from Sigma) for 72 hours. This concentration of IL-1β is found in human aortic aneurysms. After 72 hours of IL-1β stimulation, the RASMC-conditioned medium was collected for measurements of TIMP-1 activity, MMP-9 activity, and MMP-9 protein levels. The remaining SMCs were lysed in 1% sodium dodecyl sulfate (SDS), and total cellular protein was determined by a bicinchoninic acid protein assay (Pierce). In separate experiments, the previous protocol was followed, but male RASMCs were incubated with 5 different concentrations of 17-β-estradiol (1×10^−10 to 1×10^−6 mol/L) for 48 hours with concurrent IL-1β stimulation. Zymography supplies were purchased from Novex. MMP distribution after treatment of RASMC with IL-1β and increasing concentrations of 17-β-estradiol was determined. Gelatin substrate zymograms were prepared using precast 10% SDS-polyacrylamide gels containing 1 mg/mL of gelatin. Equal volumes of experimental media samples were diluted into 2× tris-glycine SDS sample buffer and electrophoretically separated under nonreducing conditions. […]

MMP-2 [3] = experiment: MMP-2 activity in media of IL-1β stimulated aortic explants from pre-treated male rats; assay type: in vivo, rat
Description: Experiment III: Male rats underwent sustained 17-β-estradiol exposure using extended-release, subcutaneously implanted pellets prior to sacrifice and aortic explanation. The explants were stimulated with IL-1β, and MMP-2 activity in the conditioned media was then determined.

MMP-9 [4] = experiment: MMP-9 activity (zymography) in media of IL-1β stimulated aortic explants from pretreated male rats; assay type: in vivo, Sprague-Dawley rats; conditions: male rats treated 3 weeks with 0.1 mg 21-day extended release pellet, IL-1β stimulation; control 75.3, p<0.03
Description: Zymography supplies were purchased from Novex. MMP distribution after treatment of RASMC with IL-1β and increasing concentrations of 17-β-estradiol was determined. Gelatin substrate zymograms were prepared using precast 10% SDS-polyacrylamide gels containing 1 mg/mL of gelatin. Equal volumes of experimental media samples were diluted into 2× tris-glycine SDS sample buffer and electrophoretically separated under nonreducing conditions. Proteins were renatured in 2.7% Triton X-100, and the gels were incubated overnight at 37° C. in 50 mmol/L tris-HCl containing 5 mmol/L CaCl2 and 2% Brij 35. After overnight staining with Coomassie blue R-250 and de-staining for 4 hours with 10% acetic acid and 40% methanol in water, gelatinase activity was evident by clear bands against a dark blue background. Male Sprague-Dawley rats (190 g to 210 g) were obtained from Charles River Laboratories. Subcutaneous neck implantation of a 21-day slow release 0.1 mg 17-β-estradiol pellet (Innovative Research of America) was performed under general inhalational anesthesia. This particular estradiol dose results in serum estradiol levels at 2 to 3 weeks of 44.7±6.1 pg/mL compared with 15.0±2.2 pg/mL in control rats (p<0.05). Three weeks after pellet implantation, the infrarenal aorta was explanted under general anesthesia. […]

[5] = system: ED-1-positive macrophages / elastin in aortic wall; experiment: Histology and ED-1 macrophage immunohistochemistry of elastase-perfused aortas; assay type: in vivo, Sprague-Dawley rats
Text: In other experiments, male rats were randomized to implantation of an estrogen pellet or sham implantation (n=13, each). The former involved the subcutaneous implantation of a 21-day slow-release 0.1-mg 17-β-estradiol pellet (Innovative Research of America, Sarasota, Fla.) in the posterior neck. Sham rats underwent the same implantation procedure without insertion of any pellet. This particular estradiol dose results in serum estradiol levels at 2 to 3 weeks of 44.7±6.1 pg/mL compared with 15.0±2.2 pg/mL in control rats (P<0.05). Rat aortas from both groups were subjected to elastase perfusion 5 days later. The aortas were then removed for study 7 or 14 days after elastase perfusion. All excised aortas were fixed in 10% formalin for 18 hours, followed by immersion in 70% ethanol for 24 hours. Aortas were then imbedded in paraffin and 4-μm sections were prepared with hematoxylin and eosin and Verhoeff-Van Gieson stains. Immunohistochemistry was undertaken after deparaffinization, rehydration, and unmasking using Trilogy (Cell Marque Corp, Hot Springs, Ariz.) in a Princess model pressure cooker (Cell Marque). Endogenous peroxidase activity was then blocked using 3% hydrogen peroxide in methanol. To help ensure that rejection was not occurring in elastase-perfused or transplanted animals, anti-T lymphocyte immunohistochemistry was performed. […]

AAAs = conditions: apolipoprotein E-deficient murine model; cited from earlier work

In the case of C[C@]12CC[C@@H]3c4ccc(O)cc4CC[C@H]3[C@@H]1CC[C@@H]2O [17-β-estradiol], the “MMP-2 activity in male RASMCs” value (MMP-2 [1]) was “not altered”, the “MMP-9 activity in male RASMC media” value (MMP-9 [2]) was “no difference” and the “MMP-2 activity in the media of whole-aortic explants” value (MMP-2 [3]; male rats pre-treated with extended-release s.c. pellets, explants stimulated with IL-1β, control 4.35×10^5, P=0.002) was 2.0×10^5 O.D./mg protein. The “decrease in MMP-2 activity in the media of whole-aortic explants” value (MMP-2 [3]; male rats pre-treated, vs control) was 2 fold, the “MMP-9 activity in conditioned media of aortic explants” value (MMP-9 [4]) was 29.9 OD×10^3/mg protein and the elastin fragmentation ([5]; estradiol treated male rats' aortas vs sham) was “less prominent”. For the same molecule, the ED-1-positive cell counts ([5]; male rats receiving estradiol, sham 5.2±0.5, P=0.0006) was 1.8±0.3 cells/HPF and the “development of AAAs” value (AAAs) was “attenuate the development of AAAs”.
